Here are results for three compounds from article PMC7284133, “Identification and analysis of novel small molecule inhibitors of RNase E: Implications for antibacterial targeting and regulation of RNase E” (Biochemistry and Biophysics Reports, 2020).

By IC50 is commonly meant the concentration that gives 50% inhibition. Usually inhibition stands for the change of the read-out against control, counted positive when it falls. Low readings indicate a weak effect, high ones a strong effect.

For assay [1], the target named is T1, RNase E (Escherichia coli, UniProt P21513).
T1 construct: gene rne; N-terminal domain (aa 1–529), N-terminally His10-tagged
Put plainly: FRET-based real-time RNA cleavage assay; also discontinuous PAGE assay. Format: biochemical.

Assay [2] has as its target T2, RNase E (Acinetobacter baumannii, UniProt A0ABX6CBI2).
T2 construct: gene rne; N-terminal domain (aa 1–544), N-terminally His10-tagged
Put plainly: biochemical.

T1 sequence (P21513 1-529): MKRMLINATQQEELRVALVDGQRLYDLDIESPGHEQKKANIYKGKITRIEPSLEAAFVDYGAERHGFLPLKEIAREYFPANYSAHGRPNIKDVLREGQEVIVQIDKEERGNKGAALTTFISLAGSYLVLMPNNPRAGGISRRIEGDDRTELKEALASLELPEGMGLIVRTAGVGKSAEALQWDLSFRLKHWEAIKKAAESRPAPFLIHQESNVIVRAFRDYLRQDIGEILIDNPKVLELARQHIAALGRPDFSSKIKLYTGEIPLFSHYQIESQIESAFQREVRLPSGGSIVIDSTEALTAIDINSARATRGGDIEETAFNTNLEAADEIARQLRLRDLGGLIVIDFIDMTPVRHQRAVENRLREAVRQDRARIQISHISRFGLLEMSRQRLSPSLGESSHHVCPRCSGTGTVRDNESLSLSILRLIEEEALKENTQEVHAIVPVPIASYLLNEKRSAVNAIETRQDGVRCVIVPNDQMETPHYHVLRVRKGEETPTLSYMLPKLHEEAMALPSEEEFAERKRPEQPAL

Regarding `CC1=NNC(=O)C1CCC(=O)O` (stereo not shown) [5′S1], on RNase E [1], 2500 µM corresponded to half-maximal inhibition (IC50). This compound also came in with an inhibition at 2000 µM against RNase E [2] of approximately 60%.

As to `CC(C)c1c(O)nc(SCCC(=O)O)[nH]c1=O` [AS2], the IC50 on RNase E [1] worked out at 1900 µM.

The compound `N[C@@H]1[C@@H](O)[C@H](O)[C@@H](COP(=O)(O)O)O[C@@H]1O` [AS4, glucosamine-6-phosphate] returned an IC50 against RNase E [1] of 2100 µM.
